Experimental data: patent US6784160B1, “Biologically active pregnene compounds” (Harbor Branch Oceanographic Institution, Inc., priority 2002, dated 2004)

Assays:
Type in all cases: cell-based
[1] = system: PANC-1 human pancreatic cell line; test: In vitro proliferation of PANC-1 cells (MTT); conditions: 72 hours exposure, read-out: PANC-1 (IC50 μg/ml)
Procedure: (§1) Swiftiapregnene was analyzed as to its effect on the proliferation of PANC-1 human pancreatic and P388 murine leukemia cell lines. P388 cells were obtained from Dr. R. Camalier, National Cancer Institute, Bethesda, Md., and PANC-1 cells were obtained from American Type Culture Collection, Rockville, Md. All cell lines were maintained in tissue culture medium (TCM; Roswell Park Memorial Institute RPMI 1640 supplemented with 100 U/mL penicillin, […] streptomycin, […] 1-glutamine, 18 mM HEPES, 0.05 mg/mL gentamicin (Life Technologies, Gaithersburg, Md.) and 10% fetal bovine serum) and cultured in plastic tissue culture flasks at 37° C. in humidified air containing 5% CO2. Stock cultures of P388 cells were subcultured 1:20 in fresh TCM every 2 to 3 days. Stock cultures of A549 cells were subcultured 1:10 every 3 to 4 days. To assess the antiproliferative effects of agents against the cells, […] cultures (96-well tissue culture plates, Nunc, Denmark) were established at 1×10^5 cells/mL in TCM or TCM containing the test agent at 0.03-5.0 μg/mL. After 48-h exposures, P388 cells were enumerated using 3-[4,5-dimethylthiazol-2-yl]-2,5-diphenyltetrazolium bromide (MTT) as described in the literature (M. C. Alley, et al., Cancer Res. 48:589, 1988). […] The results were expressed as percent inhibition compared to the negative (no drug) control. […]

[2] = system: P388 murine leukemia cell line; test: In vitro proliferation of P388 cells (MTT); conditions: Mus musculus, 48-h exposure, read-out: P388 (IC50 μg/ml)
Procedure: as §1

[3] = system: A549 human lung cells; test: Cell cycle progression by flow cytometry (propidium iodide); conditions: 100 μg/ml, 24 hr
Procedure: Cell cycle studies were initiated in order to pinpoint a specific phase within the cell cycle in which discodermolide analogs were exerting their antiproliferative effect. A549 human lung cells were used as cell cycle targets to compare the effects of discodermolide and discodermolide analogs on perturbation of the cell cycle. Cell cycle analyses were performed as follows: A549 cells were incubated at 37° C. in 5% CO2 in air in the presence or absence of varying concentrations of discodermolide or discodermolide analogs for 24 hr. Cells were harvested, fixed in ethanol, washed, and stained with 0.2 mg/mL of propidium iodide (P.I.) together with 0.1 mg/mL of RNAse A. Stained preparations were analyzed on a Coulter EPICS ELITE flow cytometer with 488 nm excitation. Fluorescence measurements and resulting DNA histograms were collected from at least 10,000 P.I. stained cells at an emission wavelength of 690 nm. Raw histogram data was further analyzed using a cell cycle analysis program (Multicycle, Phoenix Flow Systems).

## C=CC1CCC2C3CC=C4CC(OC5OC(C)C(O)C(O)C5OC(C)=O)CCC4(C)C3CCC12C (stereo not drawn) [Swiftiapregnene (I), Swiftiapregnene]
[1]
  IC50: 7.4 µg/mL
[2]
  IC50: 21 µg/mL
[3]
  effect on cell cycle (sub-G1 population): increase in the sub-G1 population
